One assay deals with human σ1 receptor and human μ-opioid receptor. The assay is described as follows: Human σ1 receptor radioligand assay and human μ-opioid receptor radioligand assay (μ and σ1 dual binding).
Details: not given
Also noted: key to μ and σ1 dual binding: +: Both Ki-μ and Ki-σ1>=500 nM; ++: One Ki<500 nM while the other Ki is >=500 nM; +++: Both Ki-μ and Ki-σ1<500 nM; ++++: Both Ki-μ and Ki-σ1<100 nM.
In turn, `COc1ccc2c(c1)CCN(C)C21CCN(CCc2ccccc2)CC1` [Example 55, 6-methoxy-2-methyl-1′-phenethyl-3,4-dihydro-2H-spiro[isoquinoline-1,4′-piperidine]] yielded an inhibition constant Ki of under 100 nM. As for `CCN1CCc2ccccc2C12CCN(CC(=O)N1CCS(=O)(=O)CC1)CC2` [Example 149, 2-(2-ethyl-3,4-dihydro-2H-spiro[isoquinoline-1,4′-piperidine]-1′-yl)-1-(1,1-dioxo-thiomorpholin-4-yl)ethanone], the “μ and σ1 dual binding” value was “++”. As for `CN1CCc2ccccc2C12CCN(CCc1cccc(N)c1)CC2` [Example 117, 3-[2-(2-Methyl-3,4-dihydro-2H-spiro[isoquinoline-1,4′-piperidin]-1′-yl)-ethyl]-phenylamine], the Ki was under 100 nM. Turning to `CN1CCc2ccccc2C12CCN(CC(=O)c1ccccc1)CC2` [Example 69, 2-(2-methyl-3,4-dihydro-2H-spiro[isoquinoline-1,4′-piperidine]-1′-yl)-1-phenylethanone], the inhibition constant Ki was under 500 nM.

With `CCN1CCc2ccccc2C12CCN(CCc1ccccc1)CC2` [Example 63, 2-Ethyl-1′-phenethyl-3,4-dihydro-2H-spiro[isoquinoline-1,4′-piperidine]], the inhibition constant Ki is under 100 nM.

`CN1CCc2ccccc2C12CCN(CCN1CCCCC1)CC2` [Example 79, 2-methyl-1′-(2-(piperidin-1-yl)ethyl)-3,4-dihydro-2H-spiro[isoquinoline-1,4′-piperidine]]: the Ki is under 500 nM. On the same count and under the same terms, next, `FC(F)(F)CN1CCc2ccccc2C12CCN(CCc1cccnc1)CC2` [Example 137, 1′-(2-(pyridin-3-yl)ethyl)-2-(2,2,2-trifluoroethyl)-3,4-dihydro-2H-spiro[isoquinoline-1,4′-piperidine]]: under 500 nM; `CC(C)OCCN1CCC2(CC1)c1ccccc1CCN2C` [Example 78, 1′-(2-isopropoxyethyl)-2-methyl-3,4-dihydro-2H-spiro[isoquinoline-1,4′-piperidine]]: under 500 nM. Turning to `O=C(CN1CCC2(CC1)c1ccccc1CCN2CC(F)(F)F)N1CCCCC1` [Example 135, 1-(piperidin-1-yl)-2-(2-(2,2,2-trifluoroethyl)-3,4-dihydro-2H-spiro[isoquinoline-1,4′-piperidine]-1′-yl)ethanone], the “μ and σ1 dual binding” value is recorded as “++”. `CN1CCc2ccccc2C12CCN(Cc1cccnc1)CC2` [Example 84, 2-methyl-1′-(pyridin-3-ylmethyl)-3,4-dihydro-2H-spiro[isoquinoline-1,4′-piperidine]] returned a Ki of under 500 nM. In the case of `CN1CCc2ccccc2C12CCN(CC(O)c1ccncc1)CC2` (stereo not shown) [Example 98, 2-(2-methyl-3,4-dihydro-2H-spiro[isoquinoline-1,4′-piperidine]-1′-yl)-1-(pyridin-4-yl)ethanol], the Ki is under 500 nM. Still for that read-out and setting: next, `c1ccc(CCN2CCC3(CC2)c2ccccc2CCN3Cc2nccs2)cc1` [Example 64, 2-((1′-phenethyl-3,4-dihydro-2H-spiro[isoquinoline-1,4′-piperidine]-2-yl)methyl)thiazole]: under 500 nM. For `CN1CCc2ccccc2C12CCN(CC(O)c1ccccn1)CC2` (stereo not shown) [Example 97, 2-(2-methyl-3,4-dihydro-2H-spiro[isoquinoline-1,4′-piperidine]-1′-yl)-1-(pyridin-2-yl)ethanol], the “μ and σ1 dual binding” value is recorded as “++”. On to `CC(=O)Nc1cccc(CCN2CCC3(CC2)c2ccccc2CCN3C)c1` [Example 119, N-{3-[2-(2-Methyl-3,4-dihydro-2H-spiro[isoquinoline-1,4′-piperidin]-1′-yl)-ethyl]-phenyl}-acetamide], for which the inhibition constant Ki is under 500 nM. Turning to `CN(C)C(=O)CN1CCC2(CC1)c1ccccc1CCN2C` [Example 73, N,N-dimethyl-2-(2-methyl-3,4-dihydro-2H-spiro[isoquinoline-1,4′-piperidine]-1′-yl)acetamide], the “μ and σ1 dual binding” value is listed as “++”. Still for that read-out and setting: as for `CC(=O)N1CCc2ccccc2C12CCN(CCOc1ccncc1)CC2` [Example 44, 1-(1′-(2-(pyridin-4-yloxy)ethyl)-3,4-dihydro-2H-spiro[isoquinoline-1,4′-piperidine]-2-yl)ethanone], the entry is “++”. The molecule `CN1CCc2ccccc2C12CCN(CCc1cccnc1)CC2` [Example 76, 2-methyl-1′-(2-(pyridin-3-yl)ethyl)-3,4-dihydro-2H-spiro[isoquinoline-1,4′-piperidine]] showed an inhibitory constant (Ki) of under 500 nM. Take `CN1CCc2ccccc2C12CCN(CC(=O)N1CC[C@H](F)C1)CC2` [Example 94, (S)-1-(3-fluoropyrrolidin-1-yl)-2-(2-methyl-3,4-dihydro-2H-spiro[isoquinoline-1,4′-piperidine]-1′-yl)ethanone]: the “μ and σ1 dual binding” value is “++”. Regarding `CC(=O)N1CCc2ccccc2C12CCN(CCOC(C)C)CC2` [Example 11, 1-(1′-(2-isopropoxyethyl)-3,4-dihydro-2H-spiro[isoquinoline-1,4′-piperidine]-2-yl)ethanone], the inhibition constant (Ki) is under 500 nM. Take `CCN1CCc2ccccc2C12CCN(CC(O)c1ccncc1)CC2` (stereo not shown) [Example 146, 2-(2-ethyl-3,4-dihydro-2H-spiro[isoquinoline-1,4′-piperidine]-1′-yl)-1-(pyridin-4-yl)ethanol]: the “μ and σ1 dual binding” value is “++”. On the same count and under the same terms, as for `CC(=O)N1CCc2ccccc2C12CCN(CCOCc1ccccc1)CC2` [Example 32, 1-(1′-(2-(benzyloxy)ethyl)-3,4-dihydro-2H-spiro[isoquinoline-1,4′-piperidine]-2-yl)ethanone], the entry is “++”. As to `CCN1CCc2ccccc2C12CCN(CC(=O)N1CCOCC1)CC2` [Example 147, 2-(2-ethyl-3,4-dihydro-2H-spiro[isoquinoline-1,4′-piperidine]-1′-yl)-1-morpholinoethanone], the inhibition constant Ki was under 500 nM. Consider `CN1CCc2ccccc2C12CCN(CC(=O)N1CCC(F)(F)CC1)CC2` [Example 61, 1-(4,4-difluoropiperidin-1-yl)-2-(2-methyl-3,4-dihydro-2H-spiro[isoquinoline-1,4′-piperidine]-1′-yl)ethanone], for which the Ki is under 500 nM.

As to `CN1CCc2ccccc2C12CCN(CC(=O)N1CCC(F)CC1)CC2` [Example 58, 1-(4-fluoropiperidin-1-yl)-2-(2-methyl-3,4-dihydro-2H-spiro[isoquinoline-1,4′-piperidine]-1′-yl)ethanone], the Ki was under 500 nM. Same read-out and setting: next, `CCN(C(=O)CN1CCC2(CC1)c1ccccc1CCN2CC)C1CC1` [Example 154, N-cyclopropyl-N-ethyl-2-(2-ethyl-3,4-dihydro-2H-spiro[isoquinoline-1,4′-piperidine]-1′-yl)acetamide]: under 500 nM. On to `O=C(CN1CCC2(CC1)c1ccccc1CCN2CC(F)(F)F)N1CCOCC1` [Example 134, 1-Morpholino-2-(2-(2,2,2-trifluoroethyl)-3,4-dihydro-2H-spiro[isoquinoline-1,4′-piperidine]-1′-yl)ethanone], for which the “μ and σ1 dual binding” value was “++”. Same read-out and setting: as for `CN1CCc2ccccc2C12CCN(CC(=O)N1CCCC(F)(F)C1)CC2` [Example 88, 1-(3,3-difluoropiperidin-1-yl)-2-(2-methyl-3,4-dihydro-2H-spiro[isoquinoline-1,4′-piperidine]-1′-yl)ethanone], the entry is “++”.

Molecule `CC(=O)N1CCc2ccccc2C12CCN(CCC(C)C)CC2` [Example 15, 1-(1′-isopentyl-3,4-dihydro-2H-spiro[isoquinoline-1,4′-piperidine]-2-yl)ethanone] displayed an inhibition constant Ki of under 500 nM. Regarding `CN(Cc1ccccn1)C(=O)CN1CCC2(CC1)c1ccccc1CCN2C` [Example 116, N-methyl-2-(2-methyl-3,4-dihydro-2H-spiro[isoquinoline-1,4′-piperidine]-1′-yl)-N-(pyridin-2-ylmethyl)acetamide], the “μ and σ1 dual binding” value was “++”. On the same count and under the same terms, as for `CC(=O)N1CCc2ccccc2C12CCN(CCC(=O)N(C)c1ccccc1)CC2` [Example 35, 3-(2-acetyl-3,4-dihydro-2H-spiro[isoquinoline-1,4′-piperidine]-1′-yl)-N-methyl-N-phenylpropanamide], the entry is “++”. Consider `OCCN1CCc2ccccc2C12CCN(CCc1cccnc1)CC2` [Example 125, 2-[1′-(2-Pyridin-3-yl-ethyl)-3,4-dihydro-spiro[isoquinoline-1,4′-piperidin]-2-yl]-ethanol], for which the inhibitory constant (Ki) is under 500 nM.

Turning to `CN1CCc2ccccc2C12CCN(CC(=O)N1CCCC1)CC2` [Example 90, 2-(2-methyl-3,4-dihydro-2H-spiro[isoquinoline-1,4′-piperidine]-1′-yl)-1-(pyrrolidin-1-yl)ethanone], the “μ and σ1 dual binding” value is on record as “++”. Same read-out and setting: next, `CC(=O)N1CCc2ccccc2C12CCN(CCOc1cccnc1)CC2` [Example 43, 1-(1′-(2-(pyridin-3-yloxy)ethyl)-3,4-dihydro-2H-spiro[isoquinoline-1,4′-piperidine]-2-yl)ethanone]: “++”.

The same assay, now with this note: combined class for Ki-μ ([3H]-DAMGO, CHO-K1 membranes) and Ki-σ1 ([3H](+)-pentazocine, HEK-293 membranes).
With `CC(=O)N1CCc2ccccc2C12CCN(CCNC(=O)OC(C)(C)C)CC2` [Example 37, tert-butyl 2-(2-acetyl-3,4-dihydro-2H-spiro[isoquinoline-1,4′-piperidine]-1′-yl)ethylcarbamate], the Ki was at least 500 nM. Same read-out and setting: as for `CC(=O)N1CCc2ccccc2C12CCN(CCN1CCCCC1)CC2` [Example 14, 1-(1′-(2-(piperidin-1-yl)ethyl)-3,4-dihydro-2H-spiro[isoquinoline-1,4′-piperidine]-2-yl)ethanone], the figure is at least 500 nM; as for `CN1CCc2ccccc2C12CCN(CC(=O)N1CCC(C(C)(C)O)CC1)CC2` [Example 59, 1-(4-(2-hydroxypropan-2-yl)piperidin-1-yl)-2-(2-methyl-3,4-dihydro-2H-spiro[isoquinoline-1,4′-piperidine]-1′-yl)ethanone], at least 500 nM. Still for that read-out and setting: next, `CCN(C(=O)CN1CCC2(CC1)c1ccccc1CN2C)C(C)C` [Example 157, N-ethyl-N-isopropyl-2-(2-methylspiro[isoindoline-1,4′-piperidine]-1′-yl)acetamide]: at least 500 nM.

As usually defined, the Ki is the dissociation constant of the complex between target and ligand, obtained from inhibition or displacement.

The record behind these values is patent US10407428B2, “Spiro-isoquinoline-1,4′-piperidine compounds having multimodal activity against pain” (ESTEVE PHARMACEUTICALS, S.A., priority 2014, dated 2019).
